According to patent US12371454B2, “Cyclic peptide compound having Kras inhibitory action” (priority 2019, dated 2025):
Starred links: 1 amine or outer side, 2 acyl side, 3 side chain; linkers in the order of their positions; H or OH if unused. Positions of bridges follow the written chain, without caps; N, C: chain ends. Non-standard residues stand in square brackets, D forms with d. Residues, ends and D or L forms follow the SMILES beside them. *: point of attachment. hPhe(3,5-F2-4-CF3) = N[C@@H](CCc1cc(F)c(C(F)(F)F)c(F)c1)C(=O)O; hPhe(3-Cl-4-CF3) = N[C@@H](CCc1ccc(C(F)(F)F)c(Cl)c1)C(=O)O; hPhe(3-F,4-CF3) = N[C@@H](CCc1ccc(C(F)(F)F)c(F)c1)C(=O)O; NMePhe(4-CF3) = CN[C@@H](Cc1ccc(C(F)(F)F)cc1)C(=O)O; hPhe(4-CF3) = N[C@@H](CCc1ccc(C(F)(F)F)cc1)C(=O)O; NMeAla(4-thiazolyl) = CN[C@@H](Cc1cscn1)C(=O)O; NMePhe(4-Cl) = CN[C@@H](Cc1ccc(Cl)cc1)C(=O)O; NMePhe(4-Me) = CN[C@@H](Cc1ccc(C)cc1)C(=O)O; NMedβ3hAla = C[C@H](CC(=O)[*:2])N(C)[*:1]; NMeGly(cPent) = CN[C@H](C(=O)O)C1CCCC1; Pro(4,4-F2) = O=C(O)[C@@H]1CC(F)(F)CN1; NMeCha = CN[C@@H](CC1CCCCC1)C(=O)O; Gly(N-(CH2)2OEt) = CCOCCNCC(=O)O; NMeF = CN[C@@H](Cc1ccccc1)C(=O)O; NMeI = CC[C@H](C)[C@H](NC)C(=O)O; NMeD = CN[C@@H](CC(=O)O)C(=O)O; NMeL = CN[C@@H](CC(C)C)C(=O)O; NMeV = CN[C@H](C(=O)O)C(C)C; d(β3hA) = C[C@@H](N)CC(=O)O; NMeA = CN[C@@H](C)C(=O)O; Piperidide = C1CCN(*)CC1; Ac5c = NC1(C(=O)O)CCCC1; Aze = O=C(O)[C@@H]1CCN1; Sar = CNCC(=O)O

Target: T1, Kras and SOS1 (biotin-tagged human Kras loaded with GDP, His-tagged human SOS1) (Homo sapiens, UniProt P01116, G12D)
T1 construct: made in house; host or cells: E. coli (stated for Kras only)
T1 sequence (P01116 1-188 isoform P01116-2 G12D): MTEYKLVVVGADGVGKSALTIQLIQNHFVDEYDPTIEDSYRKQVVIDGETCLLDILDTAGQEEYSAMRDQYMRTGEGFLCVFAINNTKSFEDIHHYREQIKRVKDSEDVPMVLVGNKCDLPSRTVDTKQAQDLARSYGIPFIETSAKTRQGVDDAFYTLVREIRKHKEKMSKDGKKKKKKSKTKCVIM
Assay: Protein-protein interaction inhibition between Kras and SOS1 (KrasGl2D-SOS PPI) using AlphaScreen
Format: binding
Conditions: AlphaScreen; biotin-tagged human Kras loaded with GDP, His-tagged human SOS1; read-out: KRAS G12D-SOS PPI IC50
Outline: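 Read-out is acceptor-bead light at 520-620 nm, arising when 680 nm-irradiated nickel donor beads pass singlet oxygen to streptavidin acceptors. The bead pair links His-tagged SOS1 with biotin-tagged, GDP-bound Kras from E. coli.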

Row | Compound | IC50 [nM]
1 | CC[C@H](C)[C@@H]1NC(=O)[C@H](C(C)C)N(C)C(=O)C[C@@H](C)NC(=O)[C@H](CC(C)C)N(C)C(=O)C2(CCCC2)NC(=O)[C@H](CC(C)C)N(C)C(=O)[C@H](CCc2ccc(C(F)(F)F)c(F)c2)NC(=O)CN(C)C(=O)[C@H](Cc2ccc(Cl)cc2)N(C)C(=O)CN(C)C(=O)CN(C)C1=O [Compound 851] (cyclo([Ac5c][NMeL][d(β3hA)][NMeV]I[Sar][Sar][NMePhe(4-Cl)][Sar][hPhe(3-F,4-CF3)][NMeL])) | 27
2 | CC[C@H](C)[C@@H]1NC(=O)[C@H](CC(C)C)N(C)C(=O)C[C@@H](C(=O)N(C)C)N(C)C(=O)[C@H]([C@@H](C)CC)N(C)C(=O)[C@H](C)NC(=O)[C@H](Cc2cscn2)N(C)C(=O)[C@H](CCc2ccc(C(F)(F)F)c(Cl)c2)NC(=O)CN(C)C(=O)[C@H](Cc2ccc(C)cc2)N(C)C(=O)[C@@H]2CCN2C(=O)[C@H](C)N(C)C1=O [Compound 856] ([NMeL]I[NMeA][Aze][NMePhe(4-Me)][Sar][hPhe(3-Cl-4-CF3)][NMeAla(4-thiazolyl)]A[NMeI][NMeD]-NMe2; lactam N-11) | 14
3 | CC[C@H](C)[C@@H]1NC(=O)[C@H](C2CCCC2)N(C)C(=O)C[C@@H](C)NC(=O)[C@H](C(C)C)N(C)C(=O)C2(CCCC2)NC(=O)[C@@H]2CCCN2C(=O)[C@H](CCc2ccc(C(F)(F)F)c(Cl)c2)NC(=O)CN(C)C(=O)[C@H](CC2CCCCC2)N(C)C(=O)CN(C)C(=O)CN(C)C1=O [Compound 857] (cyclo([Ac5c][NMeV][d(β3hA)][NMeGly(cPent)]I[Sar][Sar][NMeCha][Sar][hPhe(3-Cl-4-CF3)]P)) | 17
4 | CC[C@H](C)[C@@H]1NC(=O)[C@H](C)N(C)C(=O)C[C@@H](C(=O)N2CCCCC2)NC(=O)[C@H](CC(C)C)N(C)C(=O)[C@H](Cc2ccccc2)N(C)C(=O)[C@H](CC(C)C)NC(=O)[C@H](CCc2ccc(C(F)(F)F)c(Cl)c2)NC(=O)CN(C)C(=O)[C@H](Cc2ccc(Cl)cc2)N(C)C(=O)CN(C)C(=O)CN(C)C1=O [Compound 861] ([NMeA]I[Sar][Sar][NMePhe(4-Cl)][Sar][hPhe(3-Cl-4-CF3)]L[NMeF][NMeL]D-Piperidide; lactam N-11) | 4.5
5 | CC[C@H](C)[C@@H]1NC(=O)[C@H](CC(C)C)N(C)C(=O)C[C@@H](C)N(C)C(=O)[C@H]([C@@H](C)CC)N(C)C(=O)C2(CCCC2)NC(=O)[C@@H]2CC(F)(F)CN2C(=O)[C@H](CCc2cc(F)c(C(F)(F)F)c(F)c2)NC(=O)CN(C)C(=O)[C@H](Cc2ccc(C(F)(F)F)cc2)N(C)C(=O)[C@@H]2CCN2C(=O)[C@H](C)N(C)C1=O [Compound 863] (cyclo([Ac5c][NMeI][NMedβ3hAla][NMeL]I[NMeA][Aze][NMePhe(4-CF3)][Sar][hPhe(3,5-F2-4-CF3)][Pro(4,4-F2)])) | 2.5
6 | CCOCCN1CC(=O)N(C)[C@@H](CC2CCCCC2)C(=O)N(C)CC(=O)N[C@@H](CCc2ccc(C(F)(F)F)c(Cl)c2)C(=O)N2CCC[C@H]2C(=O)NC2(CCCC2)C(=O)N(C)[C@@H](C(C)C)C(=O)N[C@H](C)CC(=O)N(C)[C@@H](CC(C)C)C(=O)N[C@@H]([C@@H](C)CC)C(=O)N(C)CC1=O [Compound 864] (cyclo([Ac5c][NMeV][d(β3hA)][NMeL]I[Sar][Gly(N-(CH2)2OEt)][NMeCha][Sar][hPhe(3-Cl-4-CF3)]P)) | 73
7 | CC[C@H](C)[C@@H]1NC(=O)[C@H](C)N(C)C(=O)C[C@@H](C)NC(=O)[C@H](C(C)C)N(C)C(=O)[C@H](Cc2ccccc2)N(C)C(=O)[C@@H]2CCCN2C(=O)[C@H](CCc2ccc(C(F)(F)F)cc2)NC(=O)CN(C)C(=O)[C@H](Cc2ccc(Cl)cc2)N(C)C(=O)CN(C)C(=O)CN(C)C1=O [Compound 865] (cyclo(I[Sar][Sar][NMePhe(4-Cl)][Sar][hPhe(4-CF3)]P[NMeF][NMeV][d(β3hA)][NMeA])) | 55
